Source: patent US20260258025A1, “INHIBITORS OF TDP-43 AND TAU AGGREGATION” (Aquinnah Pharmaceuticals, inc., priority 2023, published 2026)

tested on: TDP-43 aggregation; assay: TDP-43 aggregation assay in SY5Y TDP-43WT cells (high content imaging); type: cell-based; conditions: Homo sapiens, tetracycline induction 24 hrs, 1 hour compound pre-treatment, sodium arsenite 23 hrs, 8-point dose curve, percentage of cells with TDP-43 aggregates, read-out: IC50, Inhibition of TDP-43 Aggregation
Summary of the method: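 Tetracycline-inducible eGFP-tagged wild-type human TDP-43 in SH-SY5Y cells, induced 24 h ([…]), compound pre-treated 1 h, then sodium arsenite […] for 23 h. Fixed cells imaged; percentage of DAPI-counted cells with aggregates gives IC50 from 8-point curves.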

`Cc1cc(-c2ccc(C3CCN(C4CCOCC4)CC3)c(F)c2)sc1C(=O)N1CC[C@H](N)C1` [Compound 296, (S)-(3-aminopyrrolidin-1-yl)(5-(3-fluoro-4-(1-(tetrahydro-2H-pyran-4-yl)piperidin-4-yl)phenyl)-3-methylthiophen-2-yl)methanone] and `Cc1cc(-c2ccc(C3CCN(C4CCOCC4)CC3)c(Cl)c2)sc1C(=O)N1CC[C@H](N)C1` [Compound 287, (S)-(3-aminopyrrolidin-1-yl)(5-(3-chloro-4-(1-(tetrahydro-2H-pyran-4-yl)piperidin-4-yl)phenyl)-3-methylthiophen-2-yl)methanone] cannot be ordered by IC50: < 500 nM for the first, < 500 nM for the second.

First: Cc1cc(-c2ccc(C3CCC3)cc2)sc1C(=O)N1CC[C@H](N)C1 [Compound 232]
Second: Cc1cc(-c2cc(Cl)cc(Cl)c2)sc1C(=O)N1CC[C@H](N)C1 [Compound 245]
The IC50 of the first is lower: 500 to 1000 nM for the first, 6000 to 10000 nM for the second. The first is the more potent here.

tested on: tau stress granules; assay: SY5Y-tT1 tau arsenite assay (tau stress granules per cell); type: cell-based; conditions: SY5Y-tT1 cells, 2 hours compound, 90 minutes arsenite, 50% reduction of granules per cell, read-out: IC50, Inhibitor Activity of Tau Stress Granules
Description: Example 91: In Vitro Efficacy Assay of Exemplary Compounds—SY5Y-tT1 Tau Arsenite/Thapsigargin Assay
• Before harvesting cells—checked to see if cells are ~80% confluency in their flask • 1. Aspirated growth media from flask. • 2. Added 4 mL of (0.25%) trypsin-EDTA (REF: 25200-056) • 3. Placed in 37° C. incubator for 5 minutes. • 4. Removed from incubator and added 11 mL growth media, washing any remaining cells adhered to the bottom of the flask. • 5. Transferred cell containing media to a 50 mL conical tube and spun for 5 minutes at 800 rpm. • 6. Aspirated supernatant and added 5 mL of growth media to cell pellet, triturating to make a homogenous cell solution. • 7. After counting cells, followed one of these plating paradigms: • (A) If treating with arsenite, plated cells at […] with tetracycline solution (5 mg/mL) added to cell solution at 1:5000 • (B) If treating with thapsigargin, plated cells at 4,000 cells/well with tetracycline solution (5 mg/mL) added to cell solution at 1:5000 • 8. Incubated at 37° C. for 48 hours.
• Solubilized all compounds to 10 mM prior to making dilution plates • 1. To a 96-well U-bottom plate (Falcon Non-Tissue Culture Treated Plates REF: 351177) added 120 μL growth media to all 96 wells, with an additional 58.2 μL to row A. • 2. Added 1.8 μL of 10 mM compound stock to wells A1-11, adding 1.8 μL of 10 mM PERKi stock (Selleck Chemistry GSK2606414 Cat No. S7307) as the control. • 3. Serially diluted 60 μL from row A down through each row, finishing with 180 μL total volume in row H. • 4. Transferred 12.5 μL of each dilution plate well to the correlating wells in cell plate, being careful not to touch cells adhered to bottom of the plate. • 5. Incubated for 2 hours.
• 1. Added 720 μL of 0.05 M sodium arsenite solution (CAS #: 7784-46-5) to 10 mL of growth media for a final concentration of […] arsenite solution, mix well. • 2. Added 12.5 μL of arsenite solution to all wells of compounds treated plate intended for arsenite treatment. • 3. Incubated at 37° C. for 90 minutes.
• Before beginning this part of the protocol: • Made 1×PBS by diluting 10× stock (10×, Phosphate buffered saline, Fisher #BP399— • 4) in sterile deionized water. • Diluted paraformaldehyde (16% Paraformaldehyde solution, Electron Microscopy Sciences #15710-S) to 4% in 1×PBS. • Diluted Hoechst stain (Life Technologies #H3570) 1:10,000 in 1×PBS (1 μL Hoechst per 10 mL 1×PBS). • Both solutions were protected from light. • 1) After compound treatment, aspirated media from cell plates and gently added in 50 μL of 4% paraformaldehyde for 10 min protected from light at room temperature. • 2) Aspirated paraformaldehyde solution and gently added 50 μL of 1:10,000 Hoechst solution to each well and incubated for 10 min protected from light at room temperature. • 3) Aspirated Hoechst solution and gently added 100 μL 1×PBS. Cover the plate with aluminum film (VWR #60941-126). • 4) Stored at 4° C. or used immediately for imaging on ThermoFisher CX7 imager.
Exemplary compounds of the disclosed herein were evaluated for efficacy for inhibitor activity of tau stress granules in the arsenite assay and quantified as drug concentration providing a 50% reduction (IC50) of granules per cell is shown in Table 4.
In Table 4 below, A indicates an IC50 (μM)<0.5 μM, B indicates an IC50 (μM) 0.5 μM to <1 μM, C indicates an IC50 (μM) 1 μM to <2 μM, and D indicates an IC50 (μM) 2 μM to <6 μM.

`CCc1cc(-c2ccc(C3CCN(C(C)C)CC3)cc2)sc1C(=O)N1CC[C@H](N)C1` [Compound 118, (S)-(3-aminopyrrolidin-1-yl)(3-ethyl-5-(4-(1-isopropylpiperidin-4-yl)phenyl)thiophen-2-yl)methanone] and `C=Cc1cc(-c2ccc(C3CCN(C(C)C)CC3)cc2)sc1C(=O)N1CC[C@H](N)C1` [Compound 117, (S)-(3-aminopyrrolidin-1-yl)(5-(4-(1-isopropylpiperidin-4-yl)phenyl)-3-vinylthiophen-2-yl)methanone] fall in the same range of IC50: 1000 to 2000 nM for the first, 1000 to 2000 nM for the second.

`Cc1cc(-c2cc(C)c(C(=O)N3CC[C@H](N)C3)s2)ccc1C1CCN(C)CC1` [Compound 144, (S)-(3-aminopyrrolidin-1-yl)(3-methyl-5-(3-methyl-4-(1-methylpiperidin-4-yl)phenyl)thiophen-2-yl)methanone] and `Cc1cc(-c2ccc(C3CCN(C)CC3)c(Cl)c2)sc1C(=O)N1CC[C@H](N)C1` [Compound 135, (S)-(3-aminopyrrolidin-1-yl)(5-(3-chloro-4-(1-methylpiperidin-4-yl)phenyl)-3-methylthiophen-2-yl)methanone] fall in the same range of IC50: 2000 to 6000 nM for the first, 2000 to 6000 nM for the second.

First: Cc1cc(-c2ccc(C3CCN(CC4CCOCC4)CC3)cc2)sc1C(=O)N1CC[C@H](N)C1 [Compound 147, (S)-(3-aminopyrrolidin-1-yl)(3-methyl-5-(4-(1-((tetrahydro-2H-pyran-4-yl)methyl)piperidin-4-yl)phenyl)thiophen-2-yl)methanone]
Second: Cc1cc(-c2ccc(C3CCN(CC4CCCCO4)CC3)cc2)sc1C(=O)N1CC[C@H](N)C1 (stereo partly drawn) [Compound 119, ((S)-3-aminopyrrolidin-1-yl)(3-methyl-5-(4-(1-((tetrahydro-2H-pyran-2-yl)methyl)piperidin-4-yl)phenyl)thiophen-2-yl)methanone]
The IC50 of the first is lower: < 500 nM for the first, 500 to 1000 nM for the second.

`Cc1cc(-c2ccc(N3CCN(C4CCC4)CC3)cc2)sc1C(=O)N1CC[C@H](N)C1` [Compound 158, (S)-(3-aminopyrrolidin-1-yl)(5-(4-(4-cyclobutylpiperazin-1-yl)phenyl)-3-methylthiophen-2-yl)methanone] and `Cc1cc(-c2ccc(N3CCN(C4CCCC4)CC3)cc2)sc1C(=O)N1CC[C@H](N)C1` [Compound 153, (S)-(3-aminopyrrolidin-1-yl)(5-(4-(4-cyclopentylpiperazin-1-yl)phenyl)-3-methylthiophen-2-yl)methanone] fall in the same range of IC50: 1000 to 2000 nM for the first, 1000 to 2000 nM for the second.

Compared with `Cc1cc(-c2ccc(C3CCN(C)CC3)cc2F)sc1C(=O)N1CC[C@H](N)C1` [Compound 128, (S)-(3-aminopyrrolidin-1-yl)(5-(2-fluoro-4-(1-methylpiperidin-4-yl)phenyl)-3-methylthiophen-2-yl)methanone], `Cc1cc(-c2ccc(C3CCN(C)CC3)cc2OC(F)(F)F)sc1C(=O)N1CC[C@H](N)C1` [Compound 103, (S)-(3-aminopyrrolidin-1-yl)(3-methyl-5-(4-(1-methylpiperidin-4-yl)-2-(trifluoromethoxy)phenyl)thiophen-2-yl)methanone] is higher in IC50: 1000 to 2000 nM for the first, 2000 to 6000 nM for the second.

First: Cc1cc(-c2cc(C)c(C(=O)N3CC[C@H](N)C3)s2)ccc1C1CCNCC1 [Compound 149, (S)-(3-aminopyrrolidin-1-yl)(3-methyl-5-(3-methyl-4-(piperidin-4-yl)phenyl)thiophen-2-yl)methanone]
Second: Cc1cc(-c2ccc(C3CCNCC3)c(F)c2)sc1C(=O)N1CC[C@H](N)C1 [Compound 140, (S)-(3-aminopyrrolidin-1-yl)(5-(3-fluoro-4-(piperidin-4-yl)phenyl)-3-methylthiophen-2-yl)methanone]
The IC50 of the first is lower: < 500 nM for the first, 500 to 1000 nM for the second. The first is the more potent here.

Compared with `Cc1cc(-c2ccc(C3CCN(C4COC4)CC3)cc2)sc1C(=O)N1CC[C@H](N)C1` [Compound 164, (S)-(3-aminopyrrolidin-1-yl)(3-methyl-5-(4-(1-(oxetan-3-yl)piperidin-4-yl)phenyl)thiophen-2-yl)methanone], `Cc1cc(-c2ccc(C3CCN(C)CC3)nc2)sc1C(=O)N1CC[C@H](N)C1` [Compound 108, (S)-(3-aminopyrrolidin-1-yl)(3-methyl-5-(6-(1-methylpiperidin-4-yl)pyridin-3-yl)thiophen-2-yl)methanone] is higher in IC50: < 500 nM for the first, 500 to 1000 nM for the second. The first is the more potent here.

First: COc1cc(-c2cc(C)c(C(=O)N3CC[C@H](N)C3)s2)ccc1C1CCN(C)CC1 [Compound 111, (S)-(3-aminopyrrolidin-1-yl)(5-(3-methoxy-4-(1-methylpiperidin-4-yl)phenyl)-3-methylthiophen-2-yl)methanone]
Second: Cc1cc(-c2ccc3c(c2)CCOC3)sc1C(=O)N1CC[C@H](N)C1 [Compound 165, (S)-(3-aminopyrrolidin-1-yl)(5-(isochroman-6-yl)-3-methylthiophen-2-yl)methanone]
The IC50 of the first is higher: 2000 to 6000 nM for the first, 500 to 1000 nM for the second. The second is the more potent here.

First: Cc1cc(-c2ccc(N3CCN(C(C)C)CC3)cc2)sc1C(=O)N1CC[C@H](N)C1 [Compound 159, (S)-(3-aminopyrrolidin-1-yl)(5-(4-(4-isopropylpiperazin-1-yl)phenyl)-3-methylthiophen-2-yl)methanone]
Second: Cc1cc(-c2ccc(N3CCNCC3)cc2)sc1C(=O)N1CC[C@H](N)C1 [Compound 162, (S)-(3-aminopyrrolidin-1-yl)(3-methyl-5-(4-(piperazin-1-yl)phenyl)thiophen-2-yl)methanone]
The IC50 of the first is lower: 500 to 1000 nM for the first, 1000 to 2000 nM for the second. The first is the more potent here.

First: Cc1cc(-c2ccc(N3CCN(C4CCCCC4)CC3)cc2)sc1C(=O)N1CC[C@H](N)C1 [Compound 148, (S)-(3-aminopyrrolidin-1-yl)(5-(4-(4-cyclohexylpiperazin-1-yl)phenyl)-3-methylthiophen-2-yl)methanone]
Second: Cc1cc(-c2ccc(C3(N(C)C)CCOCC3)cc2)sc1C(=O)N1CC[C@H](N)C1 [Compound 166, (S)-(3-aminopyrrolidin-1-yl)(5-(4-(4-(dimethylamino)tetrahydro-2H-pyran-4-yl)phenyl)-3-methylthiophen-2-yl)methanone]
The IC50 of the first is higher: 1000 to 2000 nM for the first, < 500 nM for the second.

First: Cc1cc(-c2ccc(CN(C)C)cc2)sc1C(=O)N1CC[C@H](N)C1 [Compound 217, (S)-(3-aminopyrrolidin-1-yl)(5-(4-((dimethylamino)methyl)phenyl)-3-methylthiophen-2-yl)methanone]
Second: Cc1cc(-c2ccc(C3CCNCC3)cc2F)sc1C(=O)N1CC[C@H](N)C1 [Compound 129, (S)-(3-aminopyrrolidin-1-yl)(5-(2-fluoro-4-(piperidin-4-yl)phenyl)-3-methylthiophen-2-yl)methanone]
The IC50 of the first is lower: 1000 to 2000 nM for the first, 2000 to 6000 nM for the second.
